# Where a name gives a salt, the structure may show the parent alone.
# Key:
# [1] = system: SD rats; assay: Inhibitory activity against 32P absorption from intestinal tract; type: in vivo; details: Rattus norvegicus, oral, read-out: Blood radioactivity inhibition, %
# Method: Pharmacological Test Example 4
# Inhibitory Activity Against ^32P Absorption from Intestinal Tract
# SD rats (6 to 7 weeks old, obtained from Charles River Japan, Inc. (Japan)) were raised with low-phosphorus diet (phosphorus content 0.1%, manufactured by Oriental Yeast Co., Ltd. (Japan)) for 3 to 4 days and then fasted for about 24 hr for experiment. ^32P was diluted with purified water or liquid feed (CLEA JAPAN INC. (Japan)) to 0.7 to 3.5 MBq/ml and was forcibly orally administered at a dose of 5 ml/kg (administered into the gaster through an oral probe). The compounds or media were forcibly orally administered at a dose of 5 ml/kg (divided dose of twice), 30 min before the administration of ^32P and simultaneously with the administration of ^32P. Blood was collected from caudal artery 30 min, 45 min, or 60 min after ^32P administration, and blood ^32P radioactivity was measured with a liquid scintillation counter. Inhibition of an increase in blood radioactivity was used as a measure of inhibition of phosphate absorption from the intestinal tract.
# The results are expressed in terms of the percentage inhibition determined by the following equation. (Blood radioactivity for group with the administration of medium−Blood radioactivity for group with the administration of compound)/(Blood radioactivity for group with the administration of medium)×100
# t-Test was used for a significant test of the average value difference of blood radioactivity.
# [2] = target: T1, rat NaPi-2b (Rattus norvegicus, UniProt Q9JJ09); assay: Sodium-dependent phosphate uptake of Xenopus oocytes which expressed NaPi-2b (32P); type: cell-based; details: for IC50: Xenopus oocytes expressing rat NaPi-2b, 32P radioactive phosphorus, read-out: IC50 (phosphate uptake inhibitory activity)
# T1 construct: expressed in transfected cells; host or cells: Xenopus oocytes injected with cRNA
# T1 sequence (Q9JJ09 1-695): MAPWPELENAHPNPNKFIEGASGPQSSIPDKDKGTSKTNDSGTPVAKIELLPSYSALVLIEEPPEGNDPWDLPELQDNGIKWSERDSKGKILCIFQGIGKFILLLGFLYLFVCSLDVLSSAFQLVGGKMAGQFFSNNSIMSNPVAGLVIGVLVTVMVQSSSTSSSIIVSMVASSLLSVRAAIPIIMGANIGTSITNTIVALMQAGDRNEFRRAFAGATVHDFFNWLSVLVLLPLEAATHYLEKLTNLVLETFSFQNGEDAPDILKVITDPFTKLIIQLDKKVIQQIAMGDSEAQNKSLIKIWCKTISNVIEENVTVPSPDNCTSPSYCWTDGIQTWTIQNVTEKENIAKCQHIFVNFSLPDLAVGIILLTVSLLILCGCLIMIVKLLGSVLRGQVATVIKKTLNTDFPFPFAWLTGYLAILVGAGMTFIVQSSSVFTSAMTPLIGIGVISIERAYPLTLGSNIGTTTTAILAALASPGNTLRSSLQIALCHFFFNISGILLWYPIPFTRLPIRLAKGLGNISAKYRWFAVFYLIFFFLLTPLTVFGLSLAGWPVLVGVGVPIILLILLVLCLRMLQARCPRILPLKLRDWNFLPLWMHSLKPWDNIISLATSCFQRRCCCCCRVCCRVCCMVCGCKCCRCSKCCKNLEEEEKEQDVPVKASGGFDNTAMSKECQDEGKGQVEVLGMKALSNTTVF
# Procedure, shortened: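 Inhibition at 300 μM and 100 μM was read off one inhibition curve of 32P phosphate uptake. Uptake was measured in Xenopus oocytes cultured 2 days after injection of cRNA for cloned rat NaPi-2b.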
# [3] = target: T2, human NaPi-2a (Homo sapiens, UniProt Q06495); assay: Sodium-dependent phosphate uptake of Xenopus oocytes which expressed NaPi-2a (32P); type: cell-based; details: Xenopus oocytes expressing human NaPi-2a, FIG. 3, FIG. 4
# T2 construct: expressed in transfected cells
# T2 sequence (Q06495 1-639): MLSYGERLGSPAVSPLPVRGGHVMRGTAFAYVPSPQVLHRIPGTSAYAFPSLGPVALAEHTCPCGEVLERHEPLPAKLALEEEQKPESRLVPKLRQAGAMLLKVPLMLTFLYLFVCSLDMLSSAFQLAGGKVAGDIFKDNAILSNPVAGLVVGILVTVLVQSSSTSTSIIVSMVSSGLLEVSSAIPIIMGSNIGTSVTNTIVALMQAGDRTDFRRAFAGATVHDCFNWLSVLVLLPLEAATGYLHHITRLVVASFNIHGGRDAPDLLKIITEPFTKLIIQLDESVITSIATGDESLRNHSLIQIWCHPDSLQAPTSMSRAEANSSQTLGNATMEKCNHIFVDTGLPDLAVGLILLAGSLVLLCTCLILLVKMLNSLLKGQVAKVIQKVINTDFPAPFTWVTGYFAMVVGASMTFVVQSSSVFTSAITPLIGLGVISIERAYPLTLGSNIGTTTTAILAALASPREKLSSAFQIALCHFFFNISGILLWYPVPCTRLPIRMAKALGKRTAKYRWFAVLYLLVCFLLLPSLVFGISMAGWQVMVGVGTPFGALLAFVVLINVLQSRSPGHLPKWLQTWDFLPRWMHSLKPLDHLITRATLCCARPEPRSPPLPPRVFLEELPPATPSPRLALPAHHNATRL
# Description: Experiment of Sodium-Dependent Phosphate Uptake of Xenopus oocytes which Expressed NaPi-2a
# In the test, a group with the addition of choline chloride (Choline Cl) was used as a negative control for nonspecific uptake, and PFA (phosphonoformic acid) was used as a positive control for phosphate transport inhibition.
# [4] = system: rabbit jejunal brush border membrane vesicles; assay: Nonspecific inhibitory activity against glucose absorption in rabbit jejunal brush border membrane vesicles (14C-glucose); type: biochemical; details: FIG. 2
# Method: (§1) Jejunal epithelium was obtained from New Zealand white male rabbits (7 weeks old, obtained from KITAYAMA LABES Co., Ltd. (Japan)), and brush border membrane vesicles were isolated by the calcium precipitation method described in Kanako Katai et al., J. Biochem. 121, 50-55, 1997, and Peerce, B. E. et al., Biochemistry 26, 4272-4279, 1987. Thereafter, for compound 29 and compound 68, the phosphate uptake inhibitory activity was measured using the same samples with ^32P radioactive phosphorus (manufactured by Daiichi Kagaku Inc. (Japan)) by the rapid filtration method described in Kanako Katai et al., J. Biochem. 121, 50-55, 1997. […] Further, in the same experiment, nonspective inhibitory activity against glucose absorption was determined using 14C-glucose (manufactured by Moravek Biochemical Inc. (US)). […] In both the experiments, a group with the addition of potassium chloride was used as a negative control for nonspecific uptake. All the test results given below were expressed in terms of average value±standard error. Student's t-test was used for a significant test of the control group and the test compound group.
# [5] = system: rabbit jejunal brush border membrane vesicles; assay: Sodium-dependent phosphate uptake of rabbit jejunal brush border membrane vesicles (32P, rapid filtration); type: biochemical; details: FIG. 1
# Description: Pharmacological Test Example 2
# Experiment of Sodium-Dependent Phosphate Uptake of Rabbit Jejunal Brush Border Membrane Vesicles
# as §1
IC50 [2] [nM],Compound,inhibition in vivo at 400 mg/kg [1] [%],other results
2430,"Cc1ccc(/C=N/NC(=O)c2ccccc2NC(=O)c2cccnc2)cc1C [Compound 165, N-[2-(3,4-Dimethyl-benzylidene-hydrazinocarbonyl)-phenyl]-nicotinamide hydrochloride]",27.6,–
550,"COc1ccc(C(=O)Nc2ccc(Br)cc2C(=O)N/N=C/c2cccc(F)c2)cc1OC [Compound 29, N-[4-Bromo-2-(3-fluoro-benzylidene-hydrazinocarbonyl)-phenyl]-3,4-dimethoxy-benzamide]",–,"phosphate uptake inhibitory activity against NaPi-2a [3]: had inhibitory activity; nonspecific inhibitory activity against glucose absorption [4]: did not have the inhibitory activity; phosphate uptake inhibitory activity against NaPi-2b ([2]; Xenopus oocytes, FIG. 4): had inhibitory activity; phosphate uptake inhibitory activity [5]: concentration-dependent inhibitory activity"
360,"COc1ccc(C(=O)Nc2ccc(Cl)cc2C(=O)N/N=C/c2ccc(C)cc2)cc1OC [Compound 68, N-[4-Chloro-2-(4-methyl-benzylidene-hydrazinocarbonyl)-phenyl]-3,4-dimethoxy-benzamide]",–,nonspecific inhibitory activity against glucose absorption [4]: did not have the inhibitory activity; phosphate uptake inhibitory activity [5]: concentration-dependent inhibitory activity
11400,"O=C(Nc1ccccc1C(=O)N/N=C/c1ccc(F)cc1)c1cccnc1 [Compound 130, N-[2-(4-Fluoro-benzylidene-hydrazinocarbonyl)-phenyl]-nicotinamide]",–,inhibition in vivo at 270 mg/kg ([1]; dose 270 mg/kg): 22.8%
900,"CCN(CC)CCN(C)Cc1ccc(C(=O)Nc2ccc(Br)cc2C(=O)N/N=C/c2ccc(C)cc2)cc1 [Compound 285, N-[4-Bromo-2-(4-methyl-benzylidene-hydrazinocarbonyl)-phenyl]-4-{[(2-diethylamino-ethyl)-methyl-amino]-methyl}-benzamide]",–,inhibition in vivo at 80 mg/kg ([1]; dose 80 mg/kg): 60.3%
1600,"Cc1ccc(/C=N/NC(=O)c2ccccc2NC(=O)c2ccncc2)cc1C [Compound 163, N-[2-(3,4-Dimethyl-benzylidene-hydrazinocarbonyl)-phenyl]-isonicotinamide hydrochloride]",–,inhibition in vivo at 360 mg/kg ([1]; dose 360 mg/kg): 57.8%
3470,"Cc1cccc(/C=N/NC(=O)c2ccccc2NC(=O)c2ccncc2)c1 [Compound 253, N-[2-(3-Methyl-benzylidene-hydrazinocarbonyl)-phenyl]-isonicotinamide hydrochloride]",39,–
220,"COc1ccc(C(=O)Nc2ccc(Cl)cc2C(=O)N/N=C/c2ccc(Cl)c(C(F)(F)F)c2)cc1OC [Compound 88, N-[4-Chloro-2-(4-chloro-3-trifluoromethyl-benzylidene-hydrazinocarbonyl)-phenyl]-3,4-dimethoxy-benzamide]",29.1,–
1490,"Cc1ccc(/C=N/NC(=O)c2cc(Br)ccc2NC(=O)c2cccnc2)cc1 [Compound 252, N-[4-Bromo-2-(4-methyl-benzylidene-hydrazinocarbonyl)-phenyl]-nicotinamide hydrochloride]",29.2,–
9020,"COc1cccc(/C=N/NC(=O)c2cc(Br)ccc2NC(=O)c2ccc(CN3CCC(N4CCCCC4)CC3)cc2)c1 [Compound 315, 4-[1,4′]Bipiperidinyl-1′-ylmethyl-N-[4-bromo-2-(3-methoxy-benzylidene-hydrazinocarbonyl)-phenyl]-benzamide]",–,inhibition in vivo at 100 mg/kg [1]: 42.4%
800,"Cc1ccc(/C=N/NC(=O)c2cc(Cl)ccc2NC(=O)c2cccc(CN3CCC(N4CCCCC4)CC3)c2)cc1C [Compound 372, 3-[1,4′]Bipiperidinyl-1′-ylmethyl-N-[4-chloro-2-(3,4-dimethyl-benzylidene-hydrazinocarbonyl)-phenyl]-benzamide]",–,inhibition in vivo at 100 mg/kg [1]: 63.7%
260,"COc1ccc(C(=O)Nc2ccc(Cl)cc2C(=O)N/N=C/c2ccc(C)c(C)c2)cc1OC [Compound 92, N-[4-Chloro-2-(3,4-dimethyl-benzylidene-hydrazinocarbonyl)-phenyl]-3,4-dimethoxy-benzamide]",–,inhibition in vivo at 160 mg/kg ([1]; dose 160 mg/kg): 25.5%
7190,"O=C(Nc1ccc(Br)cc1C(=O)N/N=C/c1cccc(F)c1)c1cccs1 [Compound 157, Thiophene-2-carboxylic acid [4-bromo-2-(3-fluoro-benzylidene-hydrazinocarbonyl)-phenyl]-amide]",–,inhibition in vivo at 320 mg/kg [1]: 20.7%
4760,"Cc1ccc(/C=N/NC(=O)c2ccccc2NC(=O)c2cccnc2)cc1 [Compound 164, N-[2-(4-Methyl-benzylidene-hydrazinocarbonyl)-phenyl]-nicotinamide hydrochloride]",55,–
220,"COc1ccc(C(=O)Nc2ccc(Br)cc2C(=O)N/N=C/c2ccc(C)c(C)c2)cc1OC [Compound 91, N-[4-Bromo-2-(3,4-dimethyl-benzylidene-hydrazinocarbonyl)-phenyl]-3,4-dimethoxy-benzamide]",–,inhibition in vivo at 320 mg/kg [1]: 28.3%

# Source: patent publication US8134015B2, “Compound inhibiting in vivo phosphorous transport and medicine containing the same” (Kyowa Hakko Kirin Co., Ltd., priority 2003, dated 2012)
